# Experimental data published in ChEMBL document CHEMBL5442741, “ASAP - In vitro kinase profile” (2024).
# “And” between values parts separate entries of the source, which are not always exact repeats. Identical values can stand only once.
# Experiments:
# [1] = target: Insulin-like growth factor 1 receptor (Homo sapiens) (UniProt P08069); experiment: Enzymatic radiometric [Km ATP] KinaseProfiler LeadHunter assay, kinase: IGF-1R, catalogue number: 14-465KP The assay has been performed by Eurofins Discovery.; settings: ATP concentration 200.0 uM, Test compound concentration 10.0 uM
# [2] = target: Serine/threonine-protein kinase PLK3 (Homo sapiens) (UniProt Q9H4B4); experiment: Enzymatic radiometric [Km ATP] KinaseProfiler LeadHunter assay, kinase: Plk3, catalogue number: 14-572KP The assay has been performed by Eurofins Discovery.; settings: ATP concentration 70.0 uM, Test compound concentration 10.0 uM
# [3] = target: Rho-associated protein kinase 1 (Homo sapiens) (UniProt Q13464); experiment: Enzymatic radiometric [Km ATP] KinaseProfiler LeadHunter assay, kinase: ROCK-I, catalogue number: 14-601KP The assay has been performed by Eurofins Discovery.; settings: ATP concentration 70.0 uM, Test compound concentration 10.0 uM
# [4] = target: Serine/threonine-protein kinase mTOR (Homo sapiens) (UniProt P42345); experiment: Enzymatic radiometric [Km ATP] KinaseProfiler LeadHunter assay, kinase: mTOR, catalogue number: 14-769KP The assay has been performed by Eurofins Discovery.; settings: ATP concentration 70.0 uM, Test compound concentration 10.0 uM
# [5] = target: ALK tyrosine kinase receptor (Homo sapiens) (UniProt Q9UM73); experiment: Enzymatic radiometric [Km ATP] KinaseProfiler LeadHunter assay, kinase: ALK, catalogue number: 14-555KP The assay has been performed by Eurofins Discovery.; settings: ATP concentration 200.0 uM, Test compound concentration 10.0 uM
# [6] = target: Mitogen-activated protein kinase kinase kinase 9 (Homo sapiens) (UniProt P80192); experiment: Enzymatic radiometric [Km ATP] KinaseProfiler LeadHunter assay, kinase: MLK1, catalogue number: 14-690KP The assay has been performed by Eurofins Discovery.; settings: ATP concentration 45.0 uM, Test compound concentration 10.0 uM
# [7] = target: cAMP-dependent protein kinase catalytic subunit alpha (Homo sapiens) (UniProt P17612); experiment: Enzymatic radiometric [Km ATP] KinaseProfiler LeadHunter assay, kinase: PKA, catalogue number: 14-440KP The assay has been performed by Eurofins Discovery.; settings: ATP concentration 10.0 uM, Test compound concentration 10.0 uM
# [8] = target: T1, Inhibitor of nuclear factor kappa-B kinase subunit alpha (Homo sapiens) (UniProt O15111); experiment: Enzymatic radiometric [Km ATP] KinaseProfiler LeadHunter assay, kinase: IKK-alpha, catalogue number: 14-461KP The assay has been performed by Eurofins Discovery.; settings: ATP concentration 10.0 uM, Test compound concentration 10.0 uM
# T1 sequence (whole entry): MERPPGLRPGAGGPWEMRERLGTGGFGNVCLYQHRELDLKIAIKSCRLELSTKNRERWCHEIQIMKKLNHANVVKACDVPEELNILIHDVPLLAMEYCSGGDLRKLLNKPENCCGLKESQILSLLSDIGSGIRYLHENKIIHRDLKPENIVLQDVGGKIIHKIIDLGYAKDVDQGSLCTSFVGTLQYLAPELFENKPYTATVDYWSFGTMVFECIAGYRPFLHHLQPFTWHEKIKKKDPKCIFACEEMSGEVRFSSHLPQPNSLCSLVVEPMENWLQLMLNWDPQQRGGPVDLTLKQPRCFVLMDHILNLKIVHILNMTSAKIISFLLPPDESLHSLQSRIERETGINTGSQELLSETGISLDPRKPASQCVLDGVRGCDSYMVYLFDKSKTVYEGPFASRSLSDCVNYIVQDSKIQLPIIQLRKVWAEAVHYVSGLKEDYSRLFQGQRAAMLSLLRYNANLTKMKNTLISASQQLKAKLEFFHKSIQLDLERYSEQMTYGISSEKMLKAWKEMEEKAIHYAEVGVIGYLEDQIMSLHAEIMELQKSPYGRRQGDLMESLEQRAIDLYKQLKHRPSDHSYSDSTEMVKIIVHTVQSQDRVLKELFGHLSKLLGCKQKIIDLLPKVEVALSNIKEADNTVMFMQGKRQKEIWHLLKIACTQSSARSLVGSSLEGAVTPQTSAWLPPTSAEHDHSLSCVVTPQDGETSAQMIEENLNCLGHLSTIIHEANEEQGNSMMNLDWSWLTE
# [9] = target: MAP kinase-interacting serine/threonine-protein kinase 2 (Homo sapiens) (UniProt Q9HBH9); experiment: Enzymatic radiometric [Km ATP] KinaseProfiler LeadHunter assay, kinase: Mnk2, catalogue number: 14-664KP The assay has been performed by Eurofins Discovery.; settings: ATP concentration 120.0 uM, Test compound concentration 10.0 uM
# [10] = target: Casein kinase II subunit alpha' (Homo sapiens) (UniProt P19784); experiment: Enzymatic radiometric [Km ATP] KinaseProfiler LeadHunter assay, kinase: CK2-alpha2, catalogue number: 14-689KP The assay has been performed by Eurofins Discovery.; settings: ATP concentration 10.0 uM, Test compound concentration 10.0 uM
# [11] = target: Serine/threonine-protein kinase PAK 2 (Homo sapiens) (UniProt Q13177); experiment: Enzymatic radiometric [Km ATP] KinaseProfiler LeadHunter assay, kinase: PAK2, catalogue number: 14-481KP The assay has been performed by Eurofins Discovery.; settings: ATP concentration 90.0 uM, Test compound concentration 10.0 uM
# [12] = target: Tyrosine-protein kinase JAK2 (Homo sapiens) (UniProt O60674); experiment: Enzymatic radiometric [Km ATP] KinaseProfiler LeadHunter assay, kinase: JAK2, catalogue number: 14-640KP The assay has been performed by Eurofins Discovery.; settings: ATP concentration 45.0 uM, Test compound concentration 10.0 uM
# [13] = target: Tyrosine-protein kinase Fyn (Homo sapiens) (UniProt P06241); experiment: Enzymatic radiometric [Km ATP] KinaseProfiler LeadHunter assay, kinase: Fyn, catalogue number: 14-441KP The assay has been performed by Eurofins Discovery.; settings: ATP concentration 70.0 uM, Test compound concentration 10.0 uM
# [14] = target: Glycogen synthase kinase-3 beta (Homo sapiens) (UniProt P49841); experiment: Enzymatic radiometric [Km ATP] KinaseProfiler LeadHunter assay, kinase: GSK3-beta, catalogue number: 14-306KP The assay has been performed by Eurofins Discovery.; settings: ATP concentration 15.0 uM, Test compound concentration 10.0 uM
# [15] = target: T2, Aurora kinase A (Homo sapiens) (UniProt O14965); experiment: Enzymatic radiometric [Km ATP] KinaseProfiler LeadHunter assay, kinase: Aurora-A, catalogue number: 14-511KP The assay has been performed by Eurofins Discovery.; settings: ATP concentration 15.0 uM, Test compound concentration 10.0 uM
# T2 sequence (whole entry): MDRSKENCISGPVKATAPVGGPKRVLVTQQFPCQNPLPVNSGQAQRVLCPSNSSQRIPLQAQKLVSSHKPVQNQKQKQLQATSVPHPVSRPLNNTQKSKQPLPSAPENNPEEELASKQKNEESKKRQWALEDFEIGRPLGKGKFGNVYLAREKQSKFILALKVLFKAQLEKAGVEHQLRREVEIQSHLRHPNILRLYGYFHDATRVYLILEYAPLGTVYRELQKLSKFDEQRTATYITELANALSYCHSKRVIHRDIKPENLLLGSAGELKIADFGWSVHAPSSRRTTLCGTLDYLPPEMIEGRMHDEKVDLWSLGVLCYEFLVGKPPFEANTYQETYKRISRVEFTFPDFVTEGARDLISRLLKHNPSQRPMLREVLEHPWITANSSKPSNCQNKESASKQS
# [16] = target: PI3-kinase p110-alpha/p85-alpha (Homo sapiens) (UniProt P27986+P42336); experiment: Enzymatic radiometric [Km ATP] KinaseProfiler LeadHunter assay, kinase: PI3 Kinase (p110-alpha/p85-alpha), catalogue number: 14-602KP The assay has been performed by Eurofins Discovery.; format: protein-complex assay; settings: ATP concentration 200.0 uM, Test compound concentration 10.0 uM
# Chain of Rho-associated protein kinase 1 (Homo sapiens) (Q13464 2-1354 limits assumed): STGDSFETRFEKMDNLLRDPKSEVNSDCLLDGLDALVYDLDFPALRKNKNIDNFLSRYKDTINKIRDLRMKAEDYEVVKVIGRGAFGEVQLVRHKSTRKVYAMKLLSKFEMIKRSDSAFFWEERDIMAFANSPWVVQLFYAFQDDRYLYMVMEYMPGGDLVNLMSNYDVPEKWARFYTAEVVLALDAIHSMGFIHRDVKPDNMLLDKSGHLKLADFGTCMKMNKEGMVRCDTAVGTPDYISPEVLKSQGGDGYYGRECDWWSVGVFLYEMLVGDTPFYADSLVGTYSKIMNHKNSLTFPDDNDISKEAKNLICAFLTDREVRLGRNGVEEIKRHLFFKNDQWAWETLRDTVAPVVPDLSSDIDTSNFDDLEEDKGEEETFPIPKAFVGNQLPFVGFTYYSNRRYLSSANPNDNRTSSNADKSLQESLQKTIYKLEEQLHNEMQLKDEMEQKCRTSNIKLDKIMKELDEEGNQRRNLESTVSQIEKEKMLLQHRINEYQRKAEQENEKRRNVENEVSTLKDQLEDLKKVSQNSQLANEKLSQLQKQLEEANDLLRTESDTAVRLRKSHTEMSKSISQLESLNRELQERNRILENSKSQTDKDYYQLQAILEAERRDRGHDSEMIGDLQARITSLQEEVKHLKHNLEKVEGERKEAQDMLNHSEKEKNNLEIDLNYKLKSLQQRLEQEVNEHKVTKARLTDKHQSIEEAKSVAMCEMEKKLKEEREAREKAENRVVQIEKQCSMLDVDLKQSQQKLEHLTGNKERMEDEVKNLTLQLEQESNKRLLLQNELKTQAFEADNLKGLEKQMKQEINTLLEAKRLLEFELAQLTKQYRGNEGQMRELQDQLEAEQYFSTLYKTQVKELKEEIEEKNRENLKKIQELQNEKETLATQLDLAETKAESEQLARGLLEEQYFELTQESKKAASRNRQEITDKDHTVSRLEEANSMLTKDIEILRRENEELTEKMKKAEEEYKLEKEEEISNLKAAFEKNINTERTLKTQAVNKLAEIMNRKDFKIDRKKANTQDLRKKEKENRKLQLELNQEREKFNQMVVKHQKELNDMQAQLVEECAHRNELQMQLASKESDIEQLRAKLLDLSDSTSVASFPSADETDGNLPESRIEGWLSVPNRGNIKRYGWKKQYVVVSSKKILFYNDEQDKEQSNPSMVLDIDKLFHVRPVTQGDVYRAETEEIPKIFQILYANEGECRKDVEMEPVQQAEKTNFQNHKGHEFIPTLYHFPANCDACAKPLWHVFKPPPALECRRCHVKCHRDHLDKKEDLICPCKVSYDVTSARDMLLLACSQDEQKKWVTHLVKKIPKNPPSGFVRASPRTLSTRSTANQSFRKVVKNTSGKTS
# Chain of MAP kinase-interacting serine/threonine-protein kinase 2 (Homo sapiens) (Q9HBH9 whole entry, looked up): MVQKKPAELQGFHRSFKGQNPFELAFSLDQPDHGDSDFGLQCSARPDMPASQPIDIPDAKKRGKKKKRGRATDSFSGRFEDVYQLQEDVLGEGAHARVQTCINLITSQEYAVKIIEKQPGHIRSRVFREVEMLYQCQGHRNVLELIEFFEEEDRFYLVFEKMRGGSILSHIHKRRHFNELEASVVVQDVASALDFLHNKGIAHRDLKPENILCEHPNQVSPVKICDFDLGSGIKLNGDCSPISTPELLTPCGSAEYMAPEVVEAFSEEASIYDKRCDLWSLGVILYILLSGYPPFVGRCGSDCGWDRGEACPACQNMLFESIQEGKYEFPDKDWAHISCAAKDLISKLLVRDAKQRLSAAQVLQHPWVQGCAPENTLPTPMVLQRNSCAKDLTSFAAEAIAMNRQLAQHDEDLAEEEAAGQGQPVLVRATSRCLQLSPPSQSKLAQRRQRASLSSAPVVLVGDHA
# Chain of Tyrosine-protein kinase JAK2 (Homo sapiens) (O60674 whole entry): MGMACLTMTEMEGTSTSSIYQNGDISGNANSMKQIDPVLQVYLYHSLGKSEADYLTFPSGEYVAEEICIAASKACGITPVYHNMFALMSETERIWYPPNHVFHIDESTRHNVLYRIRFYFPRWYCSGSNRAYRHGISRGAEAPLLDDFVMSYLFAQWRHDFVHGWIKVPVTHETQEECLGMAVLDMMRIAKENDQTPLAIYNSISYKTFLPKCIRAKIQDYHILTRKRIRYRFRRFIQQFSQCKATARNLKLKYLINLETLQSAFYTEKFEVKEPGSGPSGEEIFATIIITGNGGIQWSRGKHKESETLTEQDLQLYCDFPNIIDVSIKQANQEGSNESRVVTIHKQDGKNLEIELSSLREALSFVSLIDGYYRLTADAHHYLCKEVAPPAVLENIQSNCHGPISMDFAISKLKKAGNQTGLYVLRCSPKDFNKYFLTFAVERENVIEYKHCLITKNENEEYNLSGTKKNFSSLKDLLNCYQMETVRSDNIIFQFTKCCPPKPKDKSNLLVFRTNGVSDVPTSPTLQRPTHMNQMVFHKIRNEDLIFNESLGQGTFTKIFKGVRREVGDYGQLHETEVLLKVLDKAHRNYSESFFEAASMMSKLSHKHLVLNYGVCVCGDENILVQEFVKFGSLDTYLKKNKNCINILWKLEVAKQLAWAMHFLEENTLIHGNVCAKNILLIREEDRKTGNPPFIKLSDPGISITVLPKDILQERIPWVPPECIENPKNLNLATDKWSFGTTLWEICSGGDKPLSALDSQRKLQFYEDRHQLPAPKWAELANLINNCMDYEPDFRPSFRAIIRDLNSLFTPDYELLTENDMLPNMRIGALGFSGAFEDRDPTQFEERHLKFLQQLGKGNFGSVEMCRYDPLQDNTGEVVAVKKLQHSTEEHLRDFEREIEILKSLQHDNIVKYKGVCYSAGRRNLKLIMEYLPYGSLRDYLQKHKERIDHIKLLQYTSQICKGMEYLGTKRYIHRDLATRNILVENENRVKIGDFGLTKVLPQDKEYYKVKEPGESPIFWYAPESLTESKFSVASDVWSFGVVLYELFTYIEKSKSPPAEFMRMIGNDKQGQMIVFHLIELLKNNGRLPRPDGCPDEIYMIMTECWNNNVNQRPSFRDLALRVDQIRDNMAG
# Chain of Casein kinase II subunit alpha' (Homo sapiens) (P19784 whole entry, looked up): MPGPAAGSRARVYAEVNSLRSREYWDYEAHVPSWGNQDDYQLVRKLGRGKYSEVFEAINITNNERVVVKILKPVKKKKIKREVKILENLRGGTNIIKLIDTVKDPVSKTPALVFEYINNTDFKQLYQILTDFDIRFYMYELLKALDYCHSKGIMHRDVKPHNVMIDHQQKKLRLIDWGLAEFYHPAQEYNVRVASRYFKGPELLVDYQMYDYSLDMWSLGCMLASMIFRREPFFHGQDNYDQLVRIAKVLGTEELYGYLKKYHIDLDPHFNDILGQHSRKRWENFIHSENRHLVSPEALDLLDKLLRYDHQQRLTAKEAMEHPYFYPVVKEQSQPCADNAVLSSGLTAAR
# Chain of Mitogen-activated protein kinase kinase kinase 9 (Homo sapiens) (P80192 whole entry, looked up): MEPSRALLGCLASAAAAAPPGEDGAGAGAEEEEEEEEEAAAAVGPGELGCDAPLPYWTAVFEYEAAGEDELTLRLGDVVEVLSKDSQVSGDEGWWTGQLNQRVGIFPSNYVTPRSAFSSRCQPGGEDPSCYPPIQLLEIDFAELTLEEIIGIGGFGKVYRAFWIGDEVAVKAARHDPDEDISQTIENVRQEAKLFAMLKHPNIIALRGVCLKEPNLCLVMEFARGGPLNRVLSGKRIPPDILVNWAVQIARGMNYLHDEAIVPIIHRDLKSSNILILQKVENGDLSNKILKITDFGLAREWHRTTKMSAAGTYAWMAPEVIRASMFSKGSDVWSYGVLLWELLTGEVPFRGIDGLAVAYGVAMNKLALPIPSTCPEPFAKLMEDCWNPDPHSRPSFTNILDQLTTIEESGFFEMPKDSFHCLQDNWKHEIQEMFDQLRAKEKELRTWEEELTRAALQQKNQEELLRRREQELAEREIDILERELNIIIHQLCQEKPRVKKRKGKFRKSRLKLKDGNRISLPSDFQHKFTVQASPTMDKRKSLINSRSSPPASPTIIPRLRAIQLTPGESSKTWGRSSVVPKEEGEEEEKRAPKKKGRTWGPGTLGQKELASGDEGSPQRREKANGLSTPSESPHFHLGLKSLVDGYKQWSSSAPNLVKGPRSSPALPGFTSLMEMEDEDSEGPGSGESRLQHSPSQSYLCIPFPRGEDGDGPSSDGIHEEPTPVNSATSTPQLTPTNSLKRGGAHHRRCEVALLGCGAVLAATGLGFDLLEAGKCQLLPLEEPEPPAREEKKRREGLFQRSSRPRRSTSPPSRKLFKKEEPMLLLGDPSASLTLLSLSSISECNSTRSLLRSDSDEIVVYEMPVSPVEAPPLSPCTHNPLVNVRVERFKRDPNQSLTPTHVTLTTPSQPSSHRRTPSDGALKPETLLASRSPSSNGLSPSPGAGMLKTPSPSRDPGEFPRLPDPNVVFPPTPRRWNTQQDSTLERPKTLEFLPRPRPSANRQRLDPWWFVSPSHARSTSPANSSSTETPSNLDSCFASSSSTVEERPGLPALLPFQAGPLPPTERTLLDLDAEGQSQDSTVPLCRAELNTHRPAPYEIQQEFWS
# Chain of Glycogen synthase kinase-3 beta (Homo sapiens) (P49841 whole entry, looked up): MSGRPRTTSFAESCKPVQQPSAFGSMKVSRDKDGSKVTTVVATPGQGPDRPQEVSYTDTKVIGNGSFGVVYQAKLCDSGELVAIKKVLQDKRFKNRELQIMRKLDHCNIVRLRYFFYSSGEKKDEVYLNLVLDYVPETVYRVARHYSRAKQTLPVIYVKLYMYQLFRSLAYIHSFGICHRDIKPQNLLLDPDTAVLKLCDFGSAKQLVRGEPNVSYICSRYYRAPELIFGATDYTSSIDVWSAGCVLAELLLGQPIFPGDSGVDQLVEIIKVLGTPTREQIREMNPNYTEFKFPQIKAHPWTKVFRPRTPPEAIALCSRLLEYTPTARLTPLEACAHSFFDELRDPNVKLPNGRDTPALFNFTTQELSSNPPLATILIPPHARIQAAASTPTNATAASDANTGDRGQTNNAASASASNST
Structure (SMILES),Activity [1],Activity [2],Activity [3],Activity [4],Activity [5],Activity [6],Activity [7],Activity [8],Activity [9],Activity [10],Activity [11],Activity [12],Activity [13],Activity [14],Activity [15],Activity [16]
CNC(=O)Cn1cc(-c2cc3c(N[C@@H](c4ccc5c(c4)S(=O)(=O)CCC5)C(C)C)ncnc3[nH]2)cn1,105%,98%,104%,104%,95%,89%,99%,84%,94%,88%,103%,94%,65%,98%,77%,102%
CC(C)[C@@H](Nc1ncnc2[nH]ccc12)c1ccc2c(c1)S(=O)(=O)CCC2,88%,103%,110%,102%,93%,81%,98%,91%,89%,90%,110%,110%,127%,107%,57%,104%
Cc1nn(C)cc1-c1cc2c(N[C@H](c3ccc4c(c3)S(=O)(=O)CCC4)C(C)C)ncnc2[nH]1,97%,104%,103%,96%,99%,79%,95%,94%,99%,92%,100%,111%,32%,96%,55%,102%
Cn1ncc(-c2cc3c(N[C@@H](c4ccc5c(n4)OCCO5)C(C)(C)C)ncnc3[nH]2)c1C#N,77%,77%,129%,105%,117%,94%,95%,125%,100%,92%,111%,140%,82%,98%,95%,75%
CC(C)[C@H](Nc1ncnc2[nH]c(-c3cnn(C)c3C#N)cc12)c1ccc2c(n1)OCCO2,85%,102%,115%,104%,116%,73%,82%,120%,95%,95%,99%,115%,80%,98%,53%,70%
CNCc1cc(-c2cc3c(N[C@@H](c4ccc5c(c4)S(=O)(=O)CCC5)C(C)C)ncnc3[nH]2)co1,99%,124%,102%,105%,99%,86%,96%,79%,94%,90%,94%,114%,64%,92%,73%,99%
COc1ccc([C@H](Cc2nnn[nH]2)NC(=O)c2ncnc3[nH]ccc23)cc1,103%,102%,103%,97%,106%,87%,88%,98%,115%,93%,107%,116%,102%,90%,84%,99%
COc1ccc([C@@H](Cc2nnn[nH]2)NC(=O)c2ncnc3[nH]ccc23)cc1,106%,102%,93%,95%,95%,85%,105%,99%,84%,88%,102%,102%,105%,105%,71%,101%
CC(C)[C@H](Nc1ncnc2[nH]ccc12)c1ccc2c(c1)S(=O)(=O)CCC2,100%,112%,115%,99%,100%,84%,89%,92%,98%,87%,102%,99%,96%,94%,51%,94%
CC(C)[C@@H](Nc1ncnc2[nH]c(-c3cnn(C)c3C#N)cc12)c1ccc2c(n1)OCCO2,108% and 94%,90% and 89%,93% and 107%,83% and 102%,103% and 106%,81% and 82%,92% and 93%,111% and 104%,77% and 83%,86% and 93%,95% and 99%,101% and 123%,56% and 55%,85% and 101%,44% and 58%,49% and 55%
C[C@H](C(=O)O)[C@@H](NC(=O)c1ncnc2[nH]ccc12)c1ccc(Br)cc1,95%,98%,90%,100%,99%,86%,87%,99%,110%,91%,95%,99%,98%,93%,72%,100%
